Assay results as given in patent US8129558B2, “Pesticide naphthyloxy substituted phenylamidine derivatives” (Bayer Cropscience AG, priority 2005, dated 2012).

What was measured:
[1] = logP determination by HPLC on reversed-phase column (C18), EEC Directive 79/831 Annex V.A8; format: physicochemical; conditions: for logPa: C18, 40° C., 0.1% aqueous formic acid and acetonitrile; for log P (pH 2.3): pH 2.3, C18
Protocol: Calibration was carried out using unbranched alkan-2-ones (comprising 3 to 16 carbon atoms) with known logP values (determination of the logP values by the retention times using linear interpolation between two successive alkanones).

Heliothis viresens = test: Efficacy Example I: in vivo protective test on Heliothis viresens (HELIVI); set-up: species or system Heliotis virescens; conditions: soybean leaf sections sprayed, infested with eggs of cotton bollworm; concentration and time not given
Protocol: in vivo Protective Test on Heliothis viresens (HELIVI)
(§1) To produce a suitable preparation of active compound, 1 part by weight of active compound is mixed with the stated amount of solvent and emulsifier, and the concentrate is diluted with emulsifier-containing water to the desired concentration.
Soybean (Glycine max.) leaf sections are sprayed with a preparation of the active ingredient of the desired concentration. Once dry, the leaf sections are infested with eggs of cotton bollworm (Heliotis virescens).
After the specified period of time, mortality in % is determined. 100% means that all eggs have been killed and 0% means that none of the eggs have been killed.

Myzus persicae = test: Efficacy Example H: in vivo protective test on Myzus persicae (MYZUPE); conditions: Chinese cabbage leaf-disks infected with all instars of green peach aphid, sprayed; concentration and time not given
Protocol: in vivo Protective Test on Myzus persicae (MYZUPE)
as §1
Chinese cabbage (Brassica pekinesis) leaf-disks infected with all instars of the green peach aphid (Myzus persicae), are sprayed with a preparation of the active ingredient at the desired concentration.
After the specified period of time, mortality in % is determined. 100% means that all aphids have been killed; 0% means that none of the aphids have been killed.

CCN(C)C=Nc1cc(C)c(Oc2ccc3cc(C(O)c4ccccc4)ccc3c2)cc1C (racemic) [Compound 19]
logPa [1]: 2.21

Cc1cc([N+](=O)[O-])c(C)cc1Oc1ccc2ccccc2c1 [4-(naphthyl-2-oxy)-2,5-dimethylnitrobenzene]
log P (pH 2.3) [1]: 5.04

CCN(C)C=Nc1cc(C)c(Oc2ccc3ccccc3c2)cc1C [Compound 1, N-ethyl-N-methyl-N′-[4-(naphthyl-2-oxy)-2,5-xylyl]form-amidine]
log P (pH 2.3) [1]: 2.38

Cc1cc(Oc2ccc3ccccc3c2)c(C)cc1N=CN1CCCCC1 [Compound 2, Piperidinyl-N-[4-(naphthyl-2-oxy)-2,5-xylyl]form-amidine]
log P (pH 2.3) [1]: 2.51

Cc1cc(Oc2ccc3ccccc3c2)c(C)cc1N=CN(C)C(C)C [Compound 4]
logPa [1]: 2.52

CCN(C)C=Nc1cc(C)c(Oc2ccc3ccc(O)cc3c2)cc1C [Compound 5]
logPa [1]: 1.92

Cc1cc(Oc2ccc3ccc(O)cc3c2)c(C)cc1N=CN(C)C(C)C [Compound 6]
logPa [1]: 2.02

Cc1cc(Oc2ccc3cc(Br)ccc3c2)c(C)cc1N=CN(C)C(C)C [Compound 7]
logPa [1]: 2.92

CCN(C)C=Nc1cc(C)c(Oc2ccc3cc(Br)ccc3c2)cc1C [Compound 8]
logPa [1]: 2.69

CCCN(C)C=Nc1cc(C)c(Oc2ccc3cc(Br)ccc3c2)cc1C [Compound 9]
logPa [1]: 2.89

CCCN(C)C=Nc1cc(C)c(Oc2ccc3cc(C#N)ccc3c2)cc1C [Compound 10]
logPa [1]: 2.23
activity (mortality in %) (Heliothis viresens): good activity

CCN(C)C=Nc1cc(C)c(Oc2ccc3cc(C#N)ccc3c2)cc1C [Compound 11]
logPa [1]: 2.07

Cc1cc(Oc2ccc3cc(C#N)ccc3c2)c(C)cc1N=CN(C)C(C)C [Compound 12]
logPa [1]: 2.20

Cc1cc(Oc2ccc3cc(C(=O)c4ccccc4)ccc3c2)c(C)cc1N=CN(C)C(C)C [Compound 13]
logPa [1]: 2.75
activity (mortality in %) (Heliothis viresens): good activity

CCN(C)C=Nc1cc(C)c(Oc2ccc3cc(C(=O)c4ccccc4)ccc3c2)cc1C [Compound 14]
logPa [1]: 2.66

CCCN(C)C=Nc1cc(C)c(Oc2ccc3cc(C(=O)c4ccccc4)ccc3c2)cc1C [Compound 15]
logPa [1]: 2.77

COc1ccc2ccc(Oc3cc(C)c(N=CN(C)C(C)C)cc3C)cc2c1 [Compound 16]
logPa [1]: 2.56

CCN(C)C=Nc1cc(C)c(Oc2ccc3ccc(OC)cc3c2)cc1C [Compound 17]
logPa [1]: 2.44
activity (mortality in %) (Myzus persicae): good activity

CCCN(C)C=Nc1cc(C)c(Oc2ccc3ccc(OC)cc3c2)cc1C [Compound 18]
logPa [1]: 2.61

CCCCNc1ccc2ccc(Oc3cc(C)c(N=CN(C)C(C)C)cc3C)cc2c1 [Compound 20]
logPa [1]: 2.91

Cc1cc(Oc2ccc3ccccc3c2)c(C)cc1N=CN1CCOCC1 [Compound 21]
logPa [1]: 2.21

Cc1cc(Oc2ccc3ccccc3c2)c(C)cc1N=CN1CCNCC1 [Compound 22]
logPa [1]: 1.55

Cc1cc(Oc2ccc3ccccc3c2)c(C)cc1N=CN1CCN(C)CC1 [Compound 23]
logPa [1]: 1.64

CCCCNc1ccc2ccc(Oc3cc(C)c(N=CN(C)CC)cc3C)cc2c1 [Compound 24]
logPa [1]: 2.62

CCCCNc1ccc2ccc(Oc3cc(C)c(N=CN(C)CCC)cc3C)cc2c1 [Compound 25]
logPa [1]: 2.91

Cc1cc(Oc2ccc3ccccc3c2)c(C)cc1N=CN1CCCC1 [Compound 26]
logPa [1]: 2.33

CON=C(c1ccccc1)c1ccc2cc(Oc3cc(C)c(N=CN(C)C(C)C)cc3C)ccc2c1 [Compound 27]
logPa [1]: 3.20

CCN(C)C=Nc1cc(C)c(Oc2ccc3cc(C(=NOC)c4ccccc4)ccc3c2)cc1C [Compound 28]
logPa [1]: 3.05

CCCN(C)C=Nc1cc(C)c(Oc2ccc3cc(C(=NOC)c4ccccc4)ccc3c2)cc1C [Compound 29]
logPa [1]: 3.14

COc1ccc2cc(Oc3cc(C)c(N=CN(C)C(C)C)cc3C)ccc2c1 [Compound 30]
logPa [1]: 2.70

Cc1cc(Oc2ccc3cc(S(=O)(=O)NCCO)ccc3c2)c(C)cc1N=CN(C)C(C)C [Compound 31]
logPa [1]: 1.75

CCN(C)C=Nc1cc(C)c(Oc2cccc3ccccc23)cc1C [Compound 32]
logPa [1]: 2.43

CC(=O)O.CCN(C)C=Nc1cc(C)c(Oc2ccc3ccccc3c2)cc1C [Compound 34]
logPa [1]: 2.33

CCN(C)C=Nc1cc(C)c(Oc2ccc3ccccc3c2)cc1C.O=C(O)C(=O)O [Compound 35]
logPa [1]: 2.25

CCN(C)C=Nc1cc(C)c(Oc2ccc3ccccc3c2)cc1C.O=C(O)c1ccccc1 [Compound 36]
logPa [1]: 2.44
